Results on eight molecules are retold here after paper PMC10398414, “Isolation and characterization of β-transducin repeat-containing protein ligands screened using a high-throughput screening system” (Oncology Research, 2023).

Square brackets hold non-standard residues; d marks the D form. Ends that are not written are not given here. Peptide text beside a SMILES is read from it. * marks the point of attachment. pS = N[C@@H](COP(=O)(O)O)C(=O)O; Cbz = O=C(OCc1ccccc1)*

In series [1] the test system is β-catenin and phosphorylated β-catenin in HeLa cells. In words: Analysis of β-catenin degradation by immunoblotting in HeLa cells. The class given is cell-based. The settings on record: 3 h with compound. The procedure: (§1) Immunoblotting followed by in vitro ubiquitination assay was performed using anti-human Wee1A [30]. Immunoblotting in the analysis of protein degradation was performed using anti-phospho-β-catenin (Ser33/37/Thr41) antibody (1:1000, Cell Signaling Technology, Danvers, MA, USA), anti-phospho-IκBα (Ser32) (14D4), Rabbit mAb (1:1000, Cell Signaling Technology), anti-β-catenin (D10A8) (1:1000, Cell Signaling Technology), anti-IκBα antibody (1:1000, Cell Signaling Technology), and Goat polyclonal anti-rabbit IgG antibody (1:5000, Proteintech, Am Klopferspitz, Planegg-Martinsried, Germany). The transferred membrane was incubated with specific antibody, then detected using Super Signal West Pico chemiluminescent substrate (Thermo Fisher Scientific) and FUSION SOLO S (VILBER LOURMAT/MS equipment, Zi Sud torcy, Marne-la-vallee, France). The quantification of immunoblotting results was performed using ImageJ software.
For examining the effect on degradation of β-catenin, HeLa cells were cultured in the presence or absence of the compound for 3 h. The cell extracts were examined by immunoblotting using antibodies against β-catenin and phosphorylated β-catenin (p-β-catenin).

For a further series, the target named is SCF^β-TrCP1 (Homo sapiens, UniProt Q9Y297). The series can be described thus: In vitro ubiquitination assay (GST-Wee1KR substrate, immunoblotting). The class given is biochemical. The settings on record: immunoblots quantitated by ImageJ. The method, then:
Components of SCF complex (SKP1, Cul1, Rbx1, and hemagglutinin (HA)-tagged β-TrCP) were expressed in HEK293T cells. Anti-HA antibody was added into the SCF complexes expressed HEK 293T cell lysate and rotated at 4°C for 1 h. Aliquots of this mixture were added to protein G beads and rotated at 4°C for 30 min. After washing the beads in cell lysis buffer three times, the tube was centrifuged at 20,400 × g for 5 min and the supernatant was discarded. The protein on the beads was used as recombinant SCF^β-TrCP complexes. Aliquots of SCF complexes bound on the beads were then added to ubiquitination reactions (10 mM Tris pH = 7.5, 5 mM MgCl2, 1 mM DTT, 1 mM ATP, 20 mM creatine phosphate, 0.1 mg/mL creatine kinase, 5 mM NaF, 1 mM Na3VO4, 2 mg/mL ubiquitin, 0.5 μg E1 enzyme, 2 μg E2 enzyme) in a final volume of 30 µL. Compounds of 100 µM final concentration were added to reactions, and GST-Wee1KR was added as substrate 15 min later. The reaction mixtures were incubated at 37°C for 2 h and were further examined by immunoblotting.
as §1

The test system of series [2] is IκBα and phosphorylated IκBα in HeLa cells. In words: TNF-α induced IκBα degradation by immunoblotting in HeLa cells. The settings on record: 30 min compound then TNF-α 40 ng/mL 5 min. The class given is cell-based. The method, then: as §1
For examining the effect on degradation of IκBα, HeLa cells were cultured in the presence or absence of the compound for 30 min. TNF-α (Cat. No. TNA-H4211, Acro Biosystems, Newark, DE, USA) was added (40 ng/mL) and incubated for another 5 min. The cell extracts were analyzed using immunoblotting using antibodies against IκBα and phosphorylated IκBα (p-IκBα).

Series [3] has as its system TCF transcription in HeLa cells. In words: TOP/FOP-Flash luciferase reporter assay (TCF transcription activity). The class given is cell-based. Conditions: 24 h with compound. The procedure: HeLa cells were seeded on 96-well plates. Subsequently, TCF and NF-κB transcription activity was examined by the luciferase assay system. T-cell Factor (TCF) transcription activity was assessed by TOP/FOP-Flash luciferase reporter assay, using a pRL-SV40 vector as an internal control. TOP FLASH contains three […] and a firefly luciferase reporter with a minimal promoter and an upstream of the luciferase reporter gene. FOP FLASH is similar to TOP reporter; however, it has three mutated TCF-binding sites and is used as a negative control. The average ratio of TOP to renilla luciferase divided by FOP was used as TCF activity. TOP flash (Sigma-Aldrich, Temecula, CA, USA) or FOP FLASH reporter plasmids (Sigma-Aldrich) and pRL-sv40 renilla luciferase reporter (Promega) were co-transfected into HeLa cells using Lipofectamine 3000 reagent kit (Thermo Fisher Scientific). Furthermore, 24 h after transfection, cells were cultured with the compounds of different dilutions for another 24 h. The cells were lysed, and the luminescence was measured using the Luciferase Assay System (Promega). A minimum of three samples were taken for each sample.

Series [4] concerns NF-κB transcription activity in HeLa cells. In words: NF-κB luciferase reporter assay (pGL-4.32), TNF-α induced. It is filed as cell-based. The settings on record: for NF-κB transcription, % of that of the control group (DMSO, TNF-α): 20 μM; for TNF-α induced NF-κB activation of transcription: 24 h compound then TNF-α 4 h. The procedure:
For NF-κB transcription activity, PGL-4.32 contains five copies of the NF-κB response element, which is responsible for the transcription of the luciferase reporter gene, with pRL-SV40 as the internal control. NF-κB transcription activity was determined by firefly luciferase expression and normalized by renilla luciferase level. pGL-4.32 reporter plasmids (Promega) and pRL-sv40 renilla luciferase reporter (Promega) were co-transfected into HeLa cells using Lipofectamine 3000 reagent kit. Subsequently, 24 h after transfection, cells were cultured with the compounds of different dilutions for another 24 h. Furthermore, TNF-α was added, and the plates were cultured for another 4 h. The cells were lysed, and the luminescence was measured using the Luciferase Assay System. A minimum of three samples were taken for each sample.

For a further series, the system named is HeLa cells. The series can be described thus: Cytotoxicity / cell death. The class given is cell-based. The settings on record: data not shown.
A further series has as its target T1, mAG-β-TrCP1 (Homo sapiens, UniProt Q9Y297).
T1 construct: made in house; host or cells: Express SF+ insect cells (baculovirus, pFASTBacI); crude lysate used
T1 sequence (Q9Y297 1-605): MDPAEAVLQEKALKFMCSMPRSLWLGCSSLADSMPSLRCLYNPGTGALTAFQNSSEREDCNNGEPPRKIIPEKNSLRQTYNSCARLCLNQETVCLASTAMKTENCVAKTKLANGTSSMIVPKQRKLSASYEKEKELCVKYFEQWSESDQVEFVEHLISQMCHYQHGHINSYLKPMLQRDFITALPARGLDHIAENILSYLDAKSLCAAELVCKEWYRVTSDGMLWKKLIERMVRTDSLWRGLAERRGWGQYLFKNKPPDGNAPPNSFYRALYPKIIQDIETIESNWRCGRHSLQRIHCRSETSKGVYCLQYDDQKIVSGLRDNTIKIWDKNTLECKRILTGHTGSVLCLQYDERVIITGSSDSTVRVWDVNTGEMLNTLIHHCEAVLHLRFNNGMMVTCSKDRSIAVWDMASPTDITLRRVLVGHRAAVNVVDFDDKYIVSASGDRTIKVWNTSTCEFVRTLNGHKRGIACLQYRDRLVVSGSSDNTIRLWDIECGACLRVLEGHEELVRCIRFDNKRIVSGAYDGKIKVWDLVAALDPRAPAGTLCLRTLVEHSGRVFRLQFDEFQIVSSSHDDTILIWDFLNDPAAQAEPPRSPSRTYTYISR
The series can be described thus: High-throughput screening system for β-TrCP ligands (mAG-β-TrCP1 binding to plate-fixed C-IκB-PP15). Conditions: serially diluted free phosphopeptide in cell lysate. The text has this: NotI digested mAG-β-TrCP1 (mAG, N-terminally fused fluorescent monomeric Azami Green) fragment was inserted to NotI pFASTBacI (Gibco) site for obtaining recombinant plasmid containing mAG-β-TrCP1. The recombinant plasmids were then transformed into DH10Bac cells and the obtained recombinant bacmids were transfected into Express SF+ Cells. Phosphopeptides C-IkB pp15 with target sequences (seq: CDDRHDpSGLDpSMKDEE) for β-TrCP-dependent binding or its negative control C-IkB s15 (seq: CDDRHDSGLDSMKDEE) were used in the establishment of the high-throughput system. These phosphopeptides, and their non-phosphorylated derivatives, were chemically synthesized at RIKEN CBS, Research Resources Center, Japan. C-IkB pp15 or C-IkB s15 (100 μL/well of 10 μM solution) were covalently attached to maleimide-activated 96-well plates (Themo Fisher Scientific, Waltham, MA, USA) overnight. […] After washing, bound mAG-β-TrCP1 was quantitated using spectrofluorometry (excitation, 470 nm; emission, 525 nm).
C-IκB-PP15 is a phosphopeptide whose sequence is derived from IκB that is known to bind to β-TrCP. […] After enough binding and washing, the bound mAG-β-TrCP1 was quantitated using spectrofluorometry. […] When the small molecules compete with the phosphopeptides for mAG-β-TrCP1 binding, there was less plate fluorescence (Fig. 1A).

Chain of SCF^β-TrCP1 (P63208 whole entry partner, one chain of several): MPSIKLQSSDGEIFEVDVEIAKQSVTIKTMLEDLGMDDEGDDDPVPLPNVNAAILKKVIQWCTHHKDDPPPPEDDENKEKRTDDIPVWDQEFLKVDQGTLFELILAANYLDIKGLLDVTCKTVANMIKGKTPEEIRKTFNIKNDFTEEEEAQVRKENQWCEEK
Chain of SCF^β-TrCP1 (Q13616 whole entry partner, one chain of several): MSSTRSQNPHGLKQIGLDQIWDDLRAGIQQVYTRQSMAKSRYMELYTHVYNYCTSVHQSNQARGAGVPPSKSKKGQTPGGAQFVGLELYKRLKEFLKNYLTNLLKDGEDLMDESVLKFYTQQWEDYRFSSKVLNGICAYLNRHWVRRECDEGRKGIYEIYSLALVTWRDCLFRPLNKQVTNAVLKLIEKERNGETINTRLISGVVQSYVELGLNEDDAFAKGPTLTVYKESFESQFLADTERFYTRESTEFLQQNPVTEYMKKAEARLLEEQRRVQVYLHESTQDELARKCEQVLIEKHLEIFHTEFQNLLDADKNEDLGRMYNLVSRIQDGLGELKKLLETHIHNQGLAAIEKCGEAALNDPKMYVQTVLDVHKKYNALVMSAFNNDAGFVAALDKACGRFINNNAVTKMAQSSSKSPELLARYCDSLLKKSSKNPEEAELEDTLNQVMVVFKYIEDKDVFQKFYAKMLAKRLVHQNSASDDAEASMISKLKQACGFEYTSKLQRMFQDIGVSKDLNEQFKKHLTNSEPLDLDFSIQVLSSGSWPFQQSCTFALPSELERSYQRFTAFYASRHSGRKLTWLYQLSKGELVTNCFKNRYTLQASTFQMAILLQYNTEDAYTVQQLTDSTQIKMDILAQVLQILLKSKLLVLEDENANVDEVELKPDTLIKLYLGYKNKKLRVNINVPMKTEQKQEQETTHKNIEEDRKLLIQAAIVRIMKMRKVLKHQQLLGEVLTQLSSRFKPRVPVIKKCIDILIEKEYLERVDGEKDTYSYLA
Chain of SCF^β-TrCP1 (P62877 whole entry partner, one chain of several): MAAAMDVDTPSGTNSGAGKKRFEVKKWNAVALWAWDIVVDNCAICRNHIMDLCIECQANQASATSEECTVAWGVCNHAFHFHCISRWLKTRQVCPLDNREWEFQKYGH

Regarding `O=C(O)c1ccc(N2N=C(Cc3ccccc3)/C(=C/c3ccc(-c4ccccc4F)o3)C2=O)cc1` [GS143, reference compound], in series [1], the “level of phosphorylated β-catenin (p-β-catenin)” value (“level … (p-β-catenin)” below) is listed as “did not affect” and the “level of β-catenin” value is “did not affect”. Further, the 50% inhibitory concentration (IC50) against SCF^β-TrCP1 was 25 µM. Further, in series [2], the “level of IκBα after TNF-α” value is recorded as “caused the inhibition of the degradation” and the “level of phosphorylated IκBα (p-IκBα) after TNF-α” value is “caused the inhibition of the degradation”. Further, the TCF transcription result in series [3] is “did not affect TCF transcription”. The “NF-κB transcription, % of that of the control group (DMSO, TNF-α)” value in series [4] is ~ 40%.

With `CC(C)C[C@@H](C=O)NC(=O)[C@H](CC(C)C)NC(=O)[C@H](CC(C)C)NC(=O)OCc1ccccc1` [MG132, reference compound] (Cbz-Leu-Leu-Leu-aldehyde), in series [1], the “level … (p-β-catenin)” value is given as “caused the accumulation” and the “level of β-catenin” value is listed as “caused the accumulation”. Also, in series [2], the “level of IκBα after TNF-α” value was “caused the inhibition of the degradation” and the “level of phosphorylated IκBα (p-IκBα) after TNF-α” value is reported as “caused the inhibition of the degradation”.

Turning to `CC1=NN(c2ccc(C(=O)O)cc2)C(=O)/C1=C\c1ccc(-c2ccc3c(c2)C(=O)N(C(C)C)C3=O)o1` [NPL42040-01], the IC50 on SCF^β-TrCP1 was 13 µM. Also, the non-specific cytotoxicity result in the series on HeLa cells is “cytotoxicity only at high concentration”. Also, the “TNF-α induced NF-κB activation of transcription” value in series [4] is “reduced NF-κB activation dose-dependently”.

With `CC1=NN(c2ccc(C(=O)O)cc2)C(=O)/C1=C\c1ccc(-c2cc(C)c(C)cc2[N+](=O)[O-])o1` [NPL62020-01], inhibition at SCF^β-TrCP1 was half-maximal at 30 µM (IC50). Besides, the non-specific cytotoxicity entry with HeLa cells is “cytotoxicity only at high concentration”. In series [4], the “NF-κB transcription, % of that of the control group (DMSO, TNF-α)” value is “approximately 20%” and the “TNF-α induced NF-κB activation of transcription” value is recorded as “reduced NF-κB activation dose-dependently”.

In the case of `COC(=O)c1ccc(-c2ccc(/C=C3\C(=O)N(c4cccc(C(=O)O)c4)N=C3C(F)(F)F)o2)cc1` [NPL62039-01], in series [1], the “level … (p-β-catenin)” value is “promoted the accumulation” and the “level of β-catenin” value is reported as “did not significantly affect”. The molecule also came in with a concentration for half-maximal inhibition (IC50) at SCF^β-TrCP1 of 9 µM. In addition, the TCF transcription entry in series [3] is “did not cause a high increase”.

In the case of `O=C(O)c1ccc(-c2ccc(/C=C3\C(=O)N(c4ccc(C(=O)O)cc4)N=C3C(F)(F)F)o2)cc1` [NPL72038-01], in series [1], the “level … (p-β-catenin)” value is “promoted the accumulation” and the “level of β-catenin” value is “did not significantly affect”. The molecule also displayed an IC50 against SCF^β-TrCP1 of 7 µM. Further, the TCF transcription entry in series [3] is given as “did not cause a high increase”.

As to “CDDRHDpSGLDpSMKDEE (CDDRHD[pS]GLD[pS]MKDEE) [C-IκB-PP15]”, the “binding of mAG-β-TrCP1 to plate-fixed phosphopeptide in presence of free phosphopeptide” value in the series with mAG-β-TrCP1 was “concentration-dependent binding decrease”.

B1: Wnt3a: molecule that stimulates classic Wnt signaling (protein, UniProt P56704 19-352, looked up)
Protein Wnt-3a: SYPIWWSLAVGPQYSSLGSQPILCASIPGLVPKQLRFCRNYVEIMPSVAEGIKIGIQECQHQFRGRRWNCTTVHDSLAIFGPVLDKATRESAFVHAIASAGVAFAVTRSCAEGTAAICGCSSRHQGSPGKGWKWGGCSEDIEFGGMVSREFADARENRPDARSAMNRHNNEAGRQAIASHMHLKCKCHGLSGSCEVKTCWWSQPDFRAIGDFLKDKYDSASEMVVEKHRESRGWVETLRPRYTYFKVPTERDLVYYEASPNFCEPNPETGSFGTRDRTCNVSSHGIDGCDLLCCGRGHNARAERRREKCRCVFHWCCYVSCQECTRVYDVHTCK
On to B1, for which the TCF transcription result in series [3] is “increased”.
